# Measurements from patent publication US8586755B2, “Substituted nicotinamides as KCNQ2/3 modulators” (Grünenthal GmbH, priority 2009, dated 2013).
# Biological target: T1, KCNQ2/3 channels (Homo sapiens, UniProt O43525+O43526)
# T1 construct: expressed in transfected cells
# Assay: Fluorescence assay using a voltage sensitive dye (fluorimetry)
# Assay type: cell-based
# Conditions: CHO-K1 cells expressing KCNQ2/3 channels; for EC50: agonistic activity; for Emax / Fluorimetry % efficacy (retigabine 50 μM = 100%): retigabine 50 μM = 100%; for Emax: read-out: Fluorimetry % efficacy (retigabine 50 μM = 100%)
# Protocol: Pharmacological Experiments Fluorescence Assay Using a Voltage Sensitive Dye
# […] CHO-K1 cells expressing KCNQ2/3 channels are cultivated adherently at 37° C., 5% CO2 and 95% humidity in cell culture bottles (e.g. 80 cm^2 TC flasks, Nunc) with DMEM-high glucose (Sigma Aldrich, D7777) including 10% FCS (PAN Biotech, e.g. 3302-P270521) or alternatively MEM Alpha Medium (1×, liquid, Invitrogen, #22571), 10% fetal calf serum (FCS) (Invitrogen, #10270-106, heat-inactivated) and the necessary selection antibiotics.
# Before being sown out for the measurements, the cells are washed with a 1×DPBS buffer without Ca^2+/Mg^2+ (e.g. Invitrogen, #14190-094) and detached from the bottom of the culture vessel by means of Accutase (PAA Laboratories, #L11-007) (incubation with Accutase for 15 min at 37° C.). The cell count then present is determined using a CASY™ cell counter (TCC model, Schärfe System) in order subsequently to apply, depending on the density optimization for the individual cell line, 20,000-30,000 cells/well/100 μl of the described nutrient medium to 96-well measuring plates of the Corning™ CellBIND™ type (Flat Clear Bottom Black Polystyrene Microplates, #3340). Incubation is then carried out for one hour at room temperature, without gassing or adjusting the humidity, followed by incubation for 24 hours at 37° C., 5% CO2 and 95% humidity.
# The voltage-sensitive fluorescent dye from the Membrane Potential Assay Kit (Red™ Bulk format part R8123 for FLIPR, MDS Analytical Technologies™) is prepared by dissolving the contents of a vessel Membrane Potential Assay Kit Red Component A in 200 ml of extracellular buffer (ES buffer, 120 mM NaCl, 1 mM KCl, 10 mM HEPES, 2 mM CaCl2, 2 mM MgCl2, 10 mM glucose; pH 7.4). After removal of the nutrient medium, the cells are washed with 200 μl of ES buffer, then covered with a layer of 100 μl of the dye solution prepared above and incubated for 45 min at room temperature with the exclusion of light.
# The fluorescence measurements are carried out with a BMG Labtech FLUOstar™ BMG Labtech NOVOstar™ or BMG Labtech POLARstar™ instrument (525 nm excitation, 560 nm emission, Bottom Read mode). After incubation of the dye, 50 μl of the test substances in the desired concentrations, or 50 μl of ES buffer for control purposes, are introduced into separate cavities of the measuring plate and incubated for 30 min at room temperature while being shielded from light. The fluorescence intensity of the dye is then measured for 5 min and the fluorescence value F1 of each well is thus determined at a given, constant time. 15 μl of a […] KCl solution ([…]) are then added to each well. The change in fluorescence is subsequently measured until all the relevant measured values have been obtained (mainly 5-30 min). At a given time after KCl application, a fluorescence value F2 is determined, in this case at the time of the fluorescence peak.
# For calculation, the fluorescence intensity F2 is compared with the fluorescence intensity F1, and the agonistic activity of the target compound on the potassium channel is determined therefrom. F2 and F1 are calculated as follows: […]
# In order to determine whether a substance has agonistic activity,
# A substance has an agonistic activity on the potassium channel when
# [formula] it is possible to conclude that a target compound has agonistic activity if an increase in
# [formula] is to be observed as the dosage of the target compound increases.
# Calculations of EC50 values are carried out with the aid of ‘Prism v4.0’ software (GraphPad Software™).
Compound,EC50 [nM],Emax [%],Fluorimetry % efficacy (retigabine 50 μM = 100%) [%]
"O=C(NCc1cc(F)cc(F)c1)c1cccnc1SCCCc1ccc(F)cc1 [compound 36, N-[(3,5-Difluoro-phenyl)-methyl]-2-[3-(4-fluorophenyl)-propylsulfanyl]-pyridine-3-carboxylic acid amide]",45,78,
"O=C(NCc1ccc(Cl)s1)c1cccnc1SCCCc1ccc(F)cc1 [compound 37, N-[(5-Chloro-thiophen-2-yl)-methyl]-2-[3-(4-fluorophenyl)-propylsulfanyl]-pyridine-3-carboxylic acid amide]",74,89,
"CC1(C)CC1CNC(=O)c1cccnc1SCCCc1ccc(F)cc1 (stereo not drawn) [compound 38, N-[(2,2-Dimethyl-cyclopropyl)-methyl]-2-[3-(4-fluorophenyl)-propylsulfanyl]-pyridine-3-carboxylic acid amide]",144,176,
"O=C(NCC1CC2CCC1C2)c1cccnc1SCCCc1cccc(F)c1 (stereo not drawn) [compound 39, N-(5-Bicyclo[2.2.1]heptanyl-methyl)-2-[3-(3-fluorophenyl)-propylsulfanyl]-pyridine-3-carboxylic acid amide]",250,250,
"O=C(NCC1CCCCCC1)c1cccnc1SCCCc1ccc(F)cc1 [compound 41, N-(Cycloheptyl-methyl)-2-[3-(4-fluorophenyl)-propylsulfanyl]-pyridine-3-carboxylic acid amide]",157,159,
CC(C)(C)CCNC(=O)c1cccnc1SCCCc1ccc(F)cc1 [compound 42],128,,164
"O=C(CCSc1ncccc1C(=O)NCC1CC2CCC1C2)c1ccc(F)cc1 (stereo not drawn) [compound 43, N-(5-Bicyclo[2.2.1]heptanyl-methyl)-2-[[3-(4-fluorophenyl)-3-oxo-propyl]sulfanyl]-pyridine-3-carboxylic acid amide]",896,46,
"O=C(CCSc1ncccc1C(=O)NCC1CC2CCC1C2)c1ccccc1 (stereo not drawn) [compound 44, N-(5-Bicyclo[2.2.1]heptanyl-methyl)-2-[(3-oxo-3-phenyl-propyl)sulfanyl]-pyridine-3-carboxylic acid amide]",2960,167,
"CCCCCCSc1ncccc1C(=O)NCC1CC2CCC1C2 (stereo not drawn) [compound 45, N-(5-Bicyclo[2.2.1]heptanyl-methyl)-2-(hexylsulfanyl)-pyridine-3-carboxylic acid amide]",1610,224,
"O=C(NCC1CC2CCC1C2)c1cccnc1SCCOc1ccccc1 (stereo not drawn) [compound 46, N-(5-Bicyclo[2.2.1]heptanyl-methyl)-2-(2-phenoxy-ethylsulfanyl)-pyridine-3-carboxylic acid amide]",672,238,
"O=C(NCC1CC2CCC1C2)c1cccnc1SCCOc1cccc(C(F)(F)F)c1 (stereo not drawn) [compound 47, N-(5-Bicyclo[2.2.1]heptanyl-methyl)-2-[2-[3-(trifluoromethyl)-phenoxy]-ethylsulfanyl]-pyridine-3-carboxylic acid amide]",218,183,
"O=C(NCCC(F)(F)F)c1cccnc1SCCCc1ccc(F)cc1 [compound 48, 2-[3-(4-Fluorophenyl)-propylsulfanyl]-N-(3,3,3-trifluoro-propyl)-pyridine-3-carboxylic acid amide]",148,183,
"O=C(NCC1CC2CCC1C2)c1cccnc1SCCOc1ccc(F)cc1 (stereo not drawn) [compound 49, N-(5-Bicyclo[2.2.1]heptanyl-methyl)-2-[2-(4-fluoro-phenoxy)-ethylsulfanyl]-pyridine-3-carboxylic acid amide]",231,174,
O=C(NCC1CC2CCC1C2)c1cccnc1SCCC(O)c1ccc(F)cc1 (stereo not drawn) [compound 50],1490,,169
"O=C(NCC1CC2CCC1C2)c1cccnc1SCCCc1cccc2ccccc12 (stereo not drawn) [compound 52, N-(5-Bicyclo[2.2.1]heptanyl-methyl)-2-(3-naphthalen-1-yl-propylsulfanyl)-pyridine-3-carboxylic acid amide]",496,190,
"O=C(NCC1CCCCCCC1)c1cccnc1SCCCc1ccc(F)cc1 [compound 55, N-(Cyclooctyl-methyl)-2-[3-(4-fluorophenyl)-propylsulfanyl]-pyridine-3-carboxylic acid amide]",227,149,
"COc1ccc(CCCSc2ncccc2C(=O)NCC2CC3CCC2C3)cc1 (stereo not drawn) [compound 56, N-(5-Bicyclo[2.2.1]heptanyl-methyl)-2-[3-(4-methoxyphenyl)-propylsulfanyl]-pyridine-3-carboxylic acid amide]",1010,251,
"COc1ccc(CNC(=O)c2cccnc2SCCCc2ccc(F)cc2)cc1 [compound 57, 2-[3-(4-Fluorophenyl)-propylsulfanyl]-N-[(4-methoxyphenyl)-methyl]-pyridine-3-carboxylic acid amide]",252,83,
O=C(NCC1CC2CCC1C2)c1cccnc1SCCCc1ccc(O)cc1 (stereo not drawn) [compound 58],3880,,174
"O=C(NCc1cccc(C(F)(F)F)c1)c1cccnc1SCCCc1ccc(F)cc1 [compound 59, 2-[3-(4-Fluorophenyl)-propylsulfanyl]-N-[[3-(trifluoromethyl)phenyl]-methyl]-pyridine-3-carboxylic acid amide]",210,83,
"O=C(NCC1CC2CCC1C2)c1cccnc1SCCCc1ccc(F)c(F)c1 (stereo not drawn) [compound 60, N-(5-Bicyclo[2.2.1]heptanyl-methyl)-2-[3-(3,4-difluoro-phenyl)-propylsulfanyl]-pyridine-3-carboxylic acid amide]",263,236,
"O=C(NCC1CC2CCC1C2)c1cccnc1SCCCc1cc(F)cc(F)c1 (stereo not drawn) [compound 61, N-(5-Bicyclo[2.2.1]heptanyl-methyl)-2-[3-(3,5-difluoro-phenyl)-propylsulfanyl]-pyridine-3-carboxylic acid amide]",221,283,
"O=C(NCC1CC2CCC1C2)c1cccnc1SCCCc1ccc(F)cc1F (stereo not drawn) [compound 62, N-(5-Bicyclo[2.2.1]heptanyl-methyl)-2-[3-(2,4-difluoro-phenyl)-propylsulfanyl]-pyridine-3-carboxylic acid amide]",182,274,
"O=C(NCc1ccccc1F)c1cccnc1SCCCc1ccc(F)cc1 [compound 63, N-[(2-Fluorophenyl)-methyl]-2-[3-(4-fluorophenyl)-propylsulfanyl]-pyridine-3-carboxylic acid amide]",34,72,
"O=C(NCc1cccc(F)c1)c1cccnc1SCCCc1ccc(F)cc1 [compound 64, N-[(3-Fluorophenyl)-methyl]-2-[3-(4-fluorophenyl)-propylsulfanyl]-pyridine-3-carboxylic acid amide]",49,100,
"O=C(NCc1ccccc1)c1cccnc1SCCCc1ccc(F)cc1 [compound 66, N-Benzyl-2-[3-(4-fluorophenyl)-propylsulfanyl]-pyridine-3-carboxylic acid amide]",50,121,
"CC(CCc1ccccc1)Sc1ncccc1C(=O)NCC1CC2CCC1C2 (stereo not drawn) [compound 67, N-(5-Bicyclo[2.2.1]heptanyl-methyl)-2-[(1-methyl-3-phenyl-propyl)sulfanyl]-pyridine-3-carboxylic acid amide]",113,290,
